The record followed here is patent US4198506A, “2-Carboxyalkyl-2,3-dihydro-6-mercapto-s-triazolo[4,3-b]-pyridazin-3-ones” (Bristol-Myers Company, priority 1979, dated 1980).

For assay [1], the system named is Proteus (indole-). The assay is described as follows: In vitro activity (geometric mean MIC, serial dilution). In kind it is cell-based. The following applies: read-out: Geometric Mean MIC.
In assay [2] the test system is Klebsiella sp. The description is as above. The following applies: 12 strains, Mueller-Hinton agar, inoculum 10^4 dilution, MIC cutoff 200 mcg./ml., read-out: Geometric Mean MIC. In kind it is cell-based.
The subject of assay [3] is S. pyogenes. The description is as above. In kind it is cell-based. Conditions: Streptococcus pyogenes; 10 strains; Mueller-Hinton agar, inoculum 10^4 dilution; MIC cutoff 200 mcg./ml.
Assay [4] has as its system E. coli (Penicillinase +). The description is as above. In kind it is cell-based. The following applies: Escherichia coli, read-out: Geometric Mean MIC.
Assay [5] concerns S. aureus penicillinase+). The assay is described as above. In kind it is cell-based. Conditions: Staphylococcus aureus; 13 strains; Mueller-Hinton agar, inoculum 10^4 dilution; MIC cutoff 200 mcg./ml.; read-out: Geometric Mean MIC.
For assay [6], the system named is E. coli (sensitive). The assay is described as above. In kind it is cell-based. The following applies: Escherichia coli, read-out: Geometric Mean MIC.
Assay [7] relates to Enterobacter (sensitive). The assay is described as above. Conditions: 3 strains, Mueller-Hinton agar, inoculum 10^4 dilution, MIC cutoff 200 mcg./ml., read-out: Geometric Mean MIC. In kind it is cell-based.
The subject of assay [8] is E. coli Juhl. Nature of the assay: In vivo activity (Mice, sc). The following applies: several determinations listed; for ED50: Escherichia coli, read-out: PD50. From the text:
(§1) |In vivo Activity of BB-[…] and Related Compounds (Mice, sc) | (PD50 (mgm./kg.)

The subject of assay [9] is Enterobacter (Cephalosporinase +). Nature of the assay: In vitro activity (geometric mean MIC, serial dilution). In kind it is cell-based. Conditions: 7 strains, Mueller-Hinton agar, inoculum 10^4 dilution, MIC cutoff 200 mcg./ml.
Assay [10] has as its system D. pneumoniae. Described as above. In kind it is cell-based. Conditions: Streptococcus pneumoniae; 9 strains; Mueller-Hinton agar, inoculum 10^4 dilution; MIC cutoff 200 mcg./ml.
In assay [11] the test system is Proteus (indole +, cephalosporinase +). The assay is described as above. In kind it is cell-based. Conditions: read-out: Geometric Mean MIC.
Assay [12] concerns Providencia sp. Described as above. The assay is classed as cell-based. The following applies: 5 strains, Mueller-Hinton agar, inoculum 10^4 dilution, MIC cutoff 200 mcg./ml., read-out: Geometric Mean MIC.
Assay [13] deals with S. aureus (Methicillin-R). The description is as above. Conditions: Staphylococcus aureus; 15 strains; Mueller-Hinton agar, inoculum 10^4 dilution; MIC cutoff 200 mcg./ml. The assay is classed as cell-based.
Assay [14] deals with S. marcescens. Described as above. The following applies: Serratia marcescens, read-out: Geometric Mean MIC. In kind it is cell-based.
The subject of assay [15] is S. aureus (sensitive). The description is as above. In kind it is cell-based. The following applies: Staphylococcus aureus, read-out: Geometric Mean MIC.
The test system of assay [16] is Proteus (indole +). The description is as above. In kind it is cell-based. Conditions: read-out: Geometric Mean MIC.
Assay [17] concerns Shig. dysenteriae. The assay is described as follows: In vitro antibacterial activity (Steers' agar dilution MIC). The assay is classed as cell-based. Conditions: Shigella dysenteriae, table 4 (BB-S 525); Shig. dysenteriae. On the technique in general: Agar dilution tests growth on a series of plates holding different concentrations.
Assay [18] concerns Pr. rettgeri. The assay is described as above. The following applies: Providencia rettgeri, table 4 (BB-S 525); Pr. rettgeri. The assay is classed as cell-based.
In assay [19] the test system is Sal. enteritidis. The description is as above. The assay is classed as cell-based. Conditions: Salmonella enterica, table 4 (BB-S 525), Sal. enteritidis.
Assay [20] has as its system Serr. marcescens. Described as above. Conditions: Serratia marcescens, table 4 (BB-S 525); Serr. marcescens; read-out: MIC. In kind it is cell-based.
The test system of assay [21] is Pr. morganii. Described as above. In kind it is cell-based. Conditions: Morganella morganii, table 4 (BB-S 525), Pr. morganii, read-out: MIC.
Assay [22] deals with St. faecalis. Described as above. The assay is classed as cell-based. Conditions: Enterococcus faecalis, table 4 (BB-S 525); St. faecalis; read-out: MIC.
Assay [23] deals with B. anthracis. Nature of the assay: microbe, parasite or virus in culture. In kind it is cell-based. Conditions: Bacillus anthracis, table 4 (BB-S 525); B. anthracis.
Assay [24] concerns Kl. pneumoniae. The assay is described as follows: In vitro antibacterial activity (Steers' agar dilution MIC). In kind it is cell-based. Conditions: Klebsiella pneumoniae, table 4 (BB-S 525). The source says: (§2) In vitro Antibacterial Activity of BB-S493 Compared with
(§3) BB-S479 and Cefamandole (Determined by Steers' Agar Dilu-
(§4) tion Method on Mueller-Hinton Agar Plate)
(§5) In vitro antibacterial activity of BB-S 525 compared with
(§6) BB-S 479 and cefamandole (determined by Steers' agar dilution
(§7) method on Mueller-Hinton agar plate)

The subject of assay [25] is Sal. typhosa. The description is as above. In kind it is cell-based. Conditions: table 4 (BB-S 525); Sal. typhosa.
Text: as §2, §3, §4, §5, §6, §7

Assay [26] concerns Shig. flexneri. The assay is described as above. The assay is classed as cell-based. The following applies: Shigella flexneri; table 4 (BB-S 525); Shig. flexneri; read-out: MIC.
Text: as §2, §3, §4, §5, §6, §7

Assay [27] concerns E. coli. The description is as above. The assay is classed as cell-based. The following applies: Escherichia coli.
Text: as §2, §3, §4, §5, §6, §7

For assay [28], the system named is S. aureus. Described as above. In kind it is cell-based. The following applies: Staphylococcus aureus, table 4 (BB-S 525).
Text: as §2, §3, §4, §5, §6, §7

The subject of assay [29] is Shig. sonnei. The assay is described as above. In kind it is cell-based. Conditions: Shigella sonnei, table 4 (BB-S 525); Shig. sonnei.
Text: as §2, §3, §4, §5, §6, §7

Assay [30] concerns Ps. aeruginosa. The description is as above. The assay is classed as cell-based. Conditions: table 4 (BB-S 525), Ps. aeruginosa.
Assay [31] has as its system Pr. vulgaris. The description is as above. In kind it is cell-based. Conditions: Proteus vulgaris, table 4 (BB-S 525), Pr. vulgaris, read-out: MIC.
Assay [32] relates to Pr. mirabilis. The description is as above. In kind it is cell-based. Conditions: Proteus mirabilis, table 4 (BB-S 525), Pr. mirabilis, read-out: MIC.
In assay [33] the test system is Enterob. cloacae. Described as above. In kind it is cell-based. The following applies: table 4 (BB-S 525); Enterob. cloacae; read-out: MIC.
Assay [34] has as its system S. aureus Smith. Nature of the assay: In vivo activity (Mice, sc). Conditions: Staphylococcus aureus, several determinations listed, read-out: PD50.
Text: as §1

Each structure is given as a SMILES string. ≈ marks a conversion by molar mass, not a printed value. Where “and” joins values, the source holds several entries; their conditions need not be identical. Equal values may be shown once. Read-outs that look alike come from different tables or passages of the source.

Take `NCc1ccccc1CC(=O)N[C@@H]1C(=O)N2C(C(=O)O)=C(CSc3nnnn3CC(=O)O)CS[C@H]12` [BL-S786, reference compound]: the MIC in assay [1] came out at 0.9 µg/mL (≈ 1.73 µM); in assay [2], 0.8 µg/mL (≈ 1.54 µM); in assay [3] it was 0.2 µg/mL (≈ 0.385 µM); in [4] (7 strains, Mueller-Hinton agar, inoculum 10^4 dilution, MIC cutoff 200 mcg./ml.), 9.3 µg/mL (≈ 17.9 µM); in assay [5], 3 µg/mL (≈ 5.77 µM); in [6] it was 0.4 µg/mL (≈ 0.77 µM). Besides, the MIC in assay [7] was 1.3 µg/mL (≈ 2.5 µM); in [9] it was 7.7 µg/mL (≈ 14.8 µM); in assay [10], 0.08 µg/mL (≈ 0.154 µM); in assay [11] (5 strains, Mueller-Hinton agar, inoculum 10^4 dilution, MIC cutoff 200 mcg./ml.), 29 µg/mL (≈ 55.8 µM); in assay [12] it was 1.4 µg/mL (≈ 2.69 µM); in assay [13], 48 µg/mL (≈ 92.4 µM). Further, the MIC in assay [14] (16 strains, Mueller-Hinton agar, inoculum 10^4 dilution, MIC cutoff 200 mcg./ml.) is 180 µg/mL (≈ 346 µM); in [15] (4 strains, Mueller-Hinton agar, inoculum 10^4 dilution, MIC cutoff 200 mcg./ml.) it was 1.3 µg/mL (≈ 2.5 µM); in assay [16], 0.7 µg/mL (≈ 1.35 µM). In [8], the ED50 is 0.43 mg/kg. Further, the PD50 in [8] is 0.55 mgm./kg. and 0.46 mgm./kg. and 0.39 mgm./kg.

For the molecule `CNCc1ccccc1CC(=O)N[C@@H]1C(=O)N2C(C(=O)O)=C(CSc3ccc4nn(CCC(=O)O)c(=O)n4n3)CS[C@H]12` [BB-S 525, 7-[o-(N-Methylaminomethyl)phenylacetamido]-3-[2-(2-carboxyethyl)-2,3-dihydro-s-triazolo[4,3-b]pyridazin-3-on-6-ylthiomethyl]-3-cephem-4-carboxylic acid], the MIC in assay [17] is 0.1 µg/mL (≈ 0.163 µM); in assay [18], 0.8 µg/mL (≈ 1.3 µM); in assay [19], 0.2 µg/mL (≈ 0.326 µM); in assay [20], 25 µg/mL (≈ 40.7 µM); in [21] (1st line), over 100 µg/mL; in assay [21] (2nd line) it was 0.2 µg/mL (≈ 0.326 µM). The MIC was over 100 µg/mL in assay [22]; 0.2 µg/mL (≈ 0.326 µM) in [23]; 1.6 µg/mL (≈ 2.61 µM) in [24] (Kl. pneumoniae, 1st line); 0.2 µg/mL (≈ 0.326 µM) in [24] (Kl. pneumoniae, 2nd line); 0.2 µg/mL (≈ 0.326 µM) in assay [24] (Kl. pneumoniae, 3rd line); 0.2 µg/mL (≈ 0.326 µM) in assay [24] (Kl. pnuemoniae, 4th line). The MIC in assay [25] came out at 0.2 µg/mL (≈ 0.326 µM); in assay [26], 12.5 µg/mL (≈ 20.4 µM); in assay [27] (ATCC8739, table 4 (BB-S 525), E. coli ATCC 8739), 6.3 µg/mL (≈ 10.3 µM); in assay [27] (table 4 (BB-S 525), E. coli BX-1373, read-out: MIC), 0.4 µg/mL (≈ 0.652 µM); in assay [27] (table 4 (BB-S 525), E. coli Juhl, read-out: MIC), 0.4 µg/mL (≈ 0.652 µM); in [27] (table 4 (BB-S 525), E. coli NIHJ, read-out: MIC) it was 0.2 µg/mL (≈ 0.326 µM). The MIC is 0.2 µg/mL (≈ 0.326 µM) in assay [27] (table 4 (BB-S 525), E. coli, strain not given, 1st line, read-out: MIC); 0.2 µg/mL (≈ 0.326 µM) in assay [27] (table 4 (BB-S 525), E. coli, strain not given, 2nd line, read-out: MIC); 6.3 µg/mL (≈ 10.3 µM) in assay [27] (table 4 (BB-S 525), E. coli, strain not given, 3rd line, read-out: MIC); 0.2 µg/mL (≈ 0.326 µM) in assay [28] (S. aureus (strain not given)); 0.8 µg/mL (≈ 1.3 µM) in assay [28] (S. aureus BX-1633); 0.4 µg/mL (≈ 0.652 µM) in [28] (S. aureus Smith). Further, the MIC was 0.1 µg/mL (≈ 0.163 µM) in assay [29]; over 100 µg/mL in assay [30] (Pseudomonas aeruginosa, 1st line, read-out: MIC); over 100 µg/mL in assay [30] (2nd line); 0.2 µg/mL (≈ 0.326 µM) in assay [31] (1st line); 3.1 µg/mL (≈ 5.05 µM) in assay [31] (2nd line); 0.4 µg/mL (≈ 0.652 µM) in [32] (1st line). Further, the MIC was 0.2 µg/mL (≈ 0.326 µM) in assay [32] (2nd line) and 3.1 µg/mL (≈ 5.05 µM) in assay [33].

Turning to `CNCc1cc(O)ccc1CC(=O)N[C@@H]1C(=O)N2C(C(=O)O)=C(CSc3ccc4nn(CC(=O)O)c(=O)n4n3)CS[C@H]12` [BB-S478, 7-(2-N-Methylaminomethyl-4-hydroxyphenylacetamido)-3-(2-N-carboxymethyl-2,3-dihydro-s-triazolo[4,5-b]pyridazin-3-on-6-ylthiomethyl)-3-cephem-4-carboxylic Acid], the MIC came to 0.4 µg/mL (≈ 0.65 µM) in [1]; 0.6 µg/mL (≈ 0.975 µM) in assay [2]; 0.04 µg/mL (≈ 0.065 µM) in [3]; 10 µg/mL (≈ 16.2 µM) in [4]; 1 µg/mL (≈ 1.62 µM) in [5]; 0.2 µg/mL (≈ 0.325 µM) in [6] (13 strains, Mueller-Hinton agar, inoculum 10^4 dilution, MIC cutoff 200 mcg./ml.). Also, the MIC is 0.8 µg/mL (≈ 1.3 µM) in assay [7]; 2.6 µg/mL (≈ 4.22 µM) in assay [9]; 0.03 µg/mL (≈ 0.0487 µM) in assay [10]; 7.3 µg/mL (≈ 11.9 µM) in assay [11]; 4.8 µg/mL (≈ 7.8 µM) in [12]; 50 µg/mL (≈ 81.2 µM) in assay [13]. Moreover, the values for the MIC in assay [14], in [15] and in [16] were 40 µg/mL (≈ 65 µM), 0.4 µg/mL (≈ 0.65 µM) and 0.3 µg/mL (≈ 0.487 µM), respectively. Moreover, the ED50 in assay [34] and in [8] was 0.08 mg/kg throughout.
